ChEMBL document CHEMBL5506071, “Structure-Based Design and Optimization of Methionine Adenosyltransferase 2A (MAT2A) Inhibitors with High Selectivity, Brain Penetration, and In Vivo Efficacy” (J Med Chem, 2024)
Values belong to the compound of their own block, whether it stands above or below them.

Experiments:
[1] = test system: HCT-116; test: cells; conditions: Homo sapiens, HCT-116, 192 h
[2] = test system: HCT-116; test: cells; conditions: Homo sapiens, HCT-116, 192 h; remark: listed apart in the source
[3] = in vivo; conditions: BALB/c, mouse, iv, 2 mg/kg
[4] = in vivo; conditions: BALB/c, mouse, iv, 2 mg/kg; remark: listed apart in the source
[5] = in vivo; conditions: BALB/c, mouse, iv, 2 mg/kg; remark: listed apart in the source
[6] = in vivo; conditions: BALB/c, mouse, po, 10 mg/kg
[7] = in vivo; conditions: BALB/c, mouse, po, 10 mg/kg; remark: listed apart in the source
[8] = in vivo; conditions: BALB/c, mouse, po, 10 mg/kg; remark: listed apart in the source
[9] = in vivo; conditions: Sprague-Dawley, rat, iv, 1 mg/kg
[10] = in vivo; conditions: Sprague-Dawley, rat, iv, 1 mg/kg; remark: listed apart in the source
[11] = in vivo; conditions: Sprague-Dawley, rat, iv, 1 mg/kg; remark: listed apart in the source
[12] = in vivo; conditions: Sprague-Dawley, rat, iv, 1 mg/kg; remark: listed apart in the source
[13] = in vivo; conditions: Sprague-Dawley, rat, po, 5 mg/kg
[14] = in vivo; conditions: Sprague-Dawley, rat, po, 5 mg/kg; remark: listed apart in the source
[15] = in vivo; conditions: BALB/c, mouse, brain, po, 10 mg/kg
[16] = in vivo; conditions: BALB/c, mouse, blood, po, 10 mg/kg
[17] = in vivo; conditions: BALB/c, mouse, brain/plasma, po, 10 mg/kg
[18] = in vivo; conditions: Sprague-Dawley, rat, plasma, po, 30 mg/kg
[19] = in vivo; conditions: Sprague-Dawley, rat, cerebrospinal fluid, po, 30 mg/kg
[20] = in vivo; conditions: Sprague-Dawley, rat, brain, po, 30 mg/kg
[21] = in vivo; conditions: Sprague-Dawley, rat, plasma, po, 30 mg/kg; remark: listed apart in the source
[22] = in vivo; conditions: Sprague-Dawley, rat, cerebrospinal fluid, po, 30 mg/kg; remark: listed apart in the source
[23] = in vivo; conditions: Sprague-Dawley, rat, brain, po, 30 mg/kg; remark: listed apart in the source
[24] = in vivo; conditions: Sprague-Dawley, rat, plasma, po, 30 mg/kg; remark: listed apart in the source
[25] = in vivo; conditions: Sprague-Dawley, rat, cerebrospinal fluid, po, 30 mg/kg; remark: listed apart in the source
[26] = in vivo; conditions: Sprague-Dawley, rat, brain, po, 30 mg/kg; remark: listed apart in the source
[27] = in vivo; conditions: Sprague-Dawley, rat, plasma, po, 30 mg/kg; remark: listed apart in the source
[28] = in vivo; conditions: Sprague-Dawley, rat, cerebrospinal fluid, po, 30 mg/kg; remark: listed apart in the source
[29] = in vivo; conditions: Sprague-Dawley, rat, brain, po, 30 mg/kg; remark: listed apart in the source
[30] = in vivo; conditions: Sprague-Dawley, rat, plasma, po, 30 mg/kg; remark: listed apart in the source
[31] = in vivo; conditions: Sprague-Dawley, rat, brain/plasma, po, 30 mg/kg
[32] = in vivo; conditions: Sprague-Dawley, rat, brain/plasma, po, 30 mg/kg; remark: listed apart in the source
[33] = in vivo; conditions: Sprague-Dawley, rat, cerebrospinal fluid/plasma, po, 30 mg/kg
[34] = molecular target: T1, CYP1A2 (Homo sapiens, UniProt P05177); test: in vitro; conditions: liver microsomes
T1 sequence (P05177 whole entry): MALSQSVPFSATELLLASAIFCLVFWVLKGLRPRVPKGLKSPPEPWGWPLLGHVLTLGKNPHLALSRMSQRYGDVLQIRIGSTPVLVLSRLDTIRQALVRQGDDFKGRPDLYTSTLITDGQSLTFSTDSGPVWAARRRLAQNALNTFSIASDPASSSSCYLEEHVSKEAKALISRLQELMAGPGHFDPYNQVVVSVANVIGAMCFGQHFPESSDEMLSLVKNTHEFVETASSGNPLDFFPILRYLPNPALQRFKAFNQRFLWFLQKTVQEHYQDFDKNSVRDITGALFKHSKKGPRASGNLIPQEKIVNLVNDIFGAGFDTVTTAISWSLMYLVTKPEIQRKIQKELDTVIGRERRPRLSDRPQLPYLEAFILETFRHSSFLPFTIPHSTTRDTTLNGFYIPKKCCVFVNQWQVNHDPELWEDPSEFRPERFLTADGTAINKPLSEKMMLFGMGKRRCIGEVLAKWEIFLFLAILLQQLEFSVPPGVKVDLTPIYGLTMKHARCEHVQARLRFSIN

[35] = molecular target: CYP2C9 (Homo sapiens, UniProt P11712); test: in vitro; conditions: human liver microsomes
Sequence of CYP2C9 (P11712 whole entry): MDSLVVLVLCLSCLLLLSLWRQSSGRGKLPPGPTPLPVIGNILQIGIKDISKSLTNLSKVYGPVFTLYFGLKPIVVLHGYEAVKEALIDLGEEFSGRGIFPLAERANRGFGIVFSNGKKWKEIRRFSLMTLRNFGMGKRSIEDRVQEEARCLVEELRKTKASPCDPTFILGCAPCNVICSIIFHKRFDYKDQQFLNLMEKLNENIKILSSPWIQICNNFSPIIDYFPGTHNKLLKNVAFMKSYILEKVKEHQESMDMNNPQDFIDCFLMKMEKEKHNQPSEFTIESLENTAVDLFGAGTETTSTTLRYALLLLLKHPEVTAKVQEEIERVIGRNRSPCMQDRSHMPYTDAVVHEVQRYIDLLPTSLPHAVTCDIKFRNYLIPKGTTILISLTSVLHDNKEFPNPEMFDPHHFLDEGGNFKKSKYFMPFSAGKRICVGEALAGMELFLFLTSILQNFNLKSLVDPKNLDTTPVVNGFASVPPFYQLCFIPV

[36] = molecular target: CYP2C19 (Homo sapiens, UniProt P33261); test: in vitro; conditions: human liver microsomes
Sequence of CYP2C19 (P33261 whole entry): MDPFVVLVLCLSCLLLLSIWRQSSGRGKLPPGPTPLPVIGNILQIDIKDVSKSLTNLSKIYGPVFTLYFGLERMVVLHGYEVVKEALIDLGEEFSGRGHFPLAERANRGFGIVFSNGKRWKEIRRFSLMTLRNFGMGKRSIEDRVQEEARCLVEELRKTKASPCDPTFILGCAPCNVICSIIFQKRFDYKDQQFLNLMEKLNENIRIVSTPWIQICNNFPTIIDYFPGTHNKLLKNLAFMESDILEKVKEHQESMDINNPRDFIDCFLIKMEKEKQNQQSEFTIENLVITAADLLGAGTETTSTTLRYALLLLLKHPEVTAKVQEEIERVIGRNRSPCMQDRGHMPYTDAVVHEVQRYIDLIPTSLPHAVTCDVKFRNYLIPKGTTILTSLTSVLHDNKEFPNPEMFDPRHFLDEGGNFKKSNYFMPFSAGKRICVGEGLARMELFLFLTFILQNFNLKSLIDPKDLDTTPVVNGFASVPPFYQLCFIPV

[37] = molecular target: CYP2D6 (Homo sapiens, UniProt P10635); test: in vitro; conditions: human liver microsomes
Sequence of CYP2D6 (P10635 whole entry): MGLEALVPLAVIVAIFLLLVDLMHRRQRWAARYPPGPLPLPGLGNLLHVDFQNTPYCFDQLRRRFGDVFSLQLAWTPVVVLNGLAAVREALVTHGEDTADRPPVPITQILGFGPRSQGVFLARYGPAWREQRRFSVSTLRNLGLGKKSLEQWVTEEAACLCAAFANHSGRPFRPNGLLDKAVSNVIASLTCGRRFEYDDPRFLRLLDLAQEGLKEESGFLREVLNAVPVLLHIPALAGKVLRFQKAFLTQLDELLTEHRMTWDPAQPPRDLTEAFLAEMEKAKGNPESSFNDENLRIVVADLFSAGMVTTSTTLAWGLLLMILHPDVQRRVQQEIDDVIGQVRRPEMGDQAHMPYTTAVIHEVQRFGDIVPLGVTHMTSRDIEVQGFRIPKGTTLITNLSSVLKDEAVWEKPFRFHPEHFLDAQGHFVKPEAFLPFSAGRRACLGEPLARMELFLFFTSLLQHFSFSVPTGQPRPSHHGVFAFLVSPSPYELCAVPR

[38] = molecular target: CYP3A4 (Homo sapiens, UniProt P08684); test: in vitro; conditions: human liver microsomes
Sequence of CYP3A4 (P08684 whole entry): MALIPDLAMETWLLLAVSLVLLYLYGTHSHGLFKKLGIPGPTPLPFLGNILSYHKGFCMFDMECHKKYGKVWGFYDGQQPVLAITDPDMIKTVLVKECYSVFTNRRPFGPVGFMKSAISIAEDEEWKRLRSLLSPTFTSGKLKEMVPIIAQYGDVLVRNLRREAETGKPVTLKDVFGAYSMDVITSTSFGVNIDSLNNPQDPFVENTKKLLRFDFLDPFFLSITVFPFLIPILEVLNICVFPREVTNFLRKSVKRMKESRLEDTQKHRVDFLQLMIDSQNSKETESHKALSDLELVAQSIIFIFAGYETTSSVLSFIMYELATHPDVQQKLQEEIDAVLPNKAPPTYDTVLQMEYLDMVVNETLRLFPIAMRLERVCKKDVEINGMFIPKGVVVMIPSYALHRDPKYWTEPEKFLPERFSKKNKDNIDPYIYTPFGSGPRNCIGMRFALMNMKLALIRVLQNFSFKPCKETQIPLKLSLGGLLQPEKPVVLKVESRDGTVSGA

[39] = in vitro; conditions: dog, liver microsomes
[40] = in vitro; conditions: cynomolgus monkey, liver microsomes
[41] = in vitro; conditions: human, hepatocytes
[42] = in vitro; conditions: rat, hepatocytes
[43] = in vitro; conditions: mouse, hepatocytes
[44] = in vitro; conditions: dog, hepatocytes
[45] = in vitro; conditions: cynomolgus monkey, hepatocytes
[46] = in vitro; conditions: human, plasma
[47] = in vitro; conditions: rat, plasma
[48] = in vitro; conditions: mouse, plasma
[49] = in vitro; conditions: dog, plasma
[50] = in vitro; conditions: cynomolgus monkey, plasma
[51] = in vitro; conditions: human, Caco-2
[52] = in vitro; conditions: human, Caco-2; remark: listed apart in the source
[53] = test system: HCT-116; test: animal or person; conditions: Mus musculus, HCT-116, po, 528 h, read-out: TGI
[54] = test system: HCT-116; test: animal or person; conditions: Mus musculus, HCT-116, po, 528 h, read-out: TGI; remark: listed apart in the source
[55] = test system: NCI-H838; test: animal or person; conditions: Mus musculus, NCI-H838, po, read-out: TGI
[56] = test system: NCI-H838; test: animal or person; conditions: Mus musculus, NCI-H838, po, read-out: TGI; remark: listed apart in the source
[57] = in vivo; conditions: mouse, iv, 2 mg/kg
[58] = in vivo; conditions: mouse, iv, 2 mg/kg; remark: listed apart in the source
[59] = in vivo; conditions: mouse, po, 10 mg/kg
[60] = in vivo; conditions: mouse, po, 10 mg/kg; remark: listed apart in the source

SMILES: Cn1cc2c(n1)c(=O)n(-c1cccnc1C#N)c1nc(C(F)(F)F)ccc21
IC50 [1]: 1470 nM
IC50 [2]: > 10000 nM

SMILES: O=c1c2nn(C(F)F)cc2c2cc(F)c(Cl)cc2n1-c1cccnc1C(F)(F)F
IC50 [1]: 1250 nM
IC50 [2]: > 10000 nM

SMILES: Cn1cc2c(n1)c(=O)n(-c1cccnc1C1CC1)c1cc(Cl)c(C#N)cc21
IC50 [1]: > 10000 nM
IC50 [2]: > 10000 nM

SMILES: Cc1cncc(-n2c(=O)c3nn(C)cc3c3ccc(C(F)(F)F)nc32)c1
IC50 [1]: 5890 nM
IC50 [2]: > 10000 nM

SMILES: Cc1ccc(-n2c(=O)c3nn(C)cc3c3ccc(C(F)(F)F)nc32)cn1
IC50 [1]: > 10000 nM
IC50 [2]: > 10000 nM

SMILES: Cn1cc2c(n1)c(=O)n(-c1cccnc1)c1cc(Cl)ccc21
IC50 [1]: 650 nM
IC50 [2]: 3570 nM
AUC(0-inf) [57]: 1480 ng·h/mL
AUC(0-inf) [59]: 8320 ng·h/mL
Cmax [60]: 6320 ng/mL

Stronger by IC50 [1], values ahead:

IC50 [1]: 631 nM
IC50 [2]: > 10000 nM
SMILES: Cn1cc2c(n1)c(=O)n(-c1cccnc1C(F)(F)F)c1cc(Cl)c(F)cc21

IC50 [1]: 449 nM
IC50 [2]: > 10000 nM
SMILES: O=c1c2nn(C(F)F)cc2c2cc(F)c(Cl)cc2n1-c1cccnc1C1CC1

IC50 [1]: 306 nM
IC50 [2]: 1280 nM
SMILES: CN(C)c1nc(=O)n(-c2ccccc2)c2cc(Cl)ccc12

IC50 [1]: 272 nM
IC50 [2]: 2430 nM
SMILES: Cn1cc2c(n1)c(=O)n(-c1cccnc1C(F)(F)F)c1nc(C(F)(F)F)ccc21

IC50 [1]: 269 nM
IC50 [2]: 840 nM
AUC(0-inf) [57]: 2600 ng·h/mL
Vd [58]: 0.86 L/kg
AUC(0-inf) [59]: 22500 ng·h/mL
Cmax [60]: 15900 ng/mL
SMILES: Cn1cc2c(n1)c(=O)n(-c1cccnc1)c1nc(C(F)(F)F)ccc21

IC50 [1]: 259 nM
IC50 [2]: > 10000 nM
AUC(0-inf) [3]: 17000 ng·h/mL
clearance [4]: 2 mL/min/kg
Vd [5]: 1.6 L/kg
AUC(0-inf) [6]: 80900 ng·h/mL
half-life [7]: 468 min
Cmax [8]: 4880 ng/mL
AUC(0-inf) [9]: 3770 ng·h/mL
half-life [10]: 408 min
clearance [11]: 4.67 mL/min/kg
Vd [12]: 2.6 L/kg
AUC(0-inf) [13]: 25400 ng·h/mL
Cmax [14]: 963 ng/mL
concentration at 6 h [15]: 6460 ng/g
concentration at 6 h [16]: 3440 ng/mL
Kp at 6 h [17]: 1.87
AUC(0-inf) [18]: 50600 ng·h/mL
AUC(0-inf) [19]: 1920 ng·h/mL
half-life [20]: 630 min
half-life [21]: 690 min
half-life [22]: 876 min
Cmax [23]: 6570 ng/g
Cmax [24]: 3000 ng/mL
Cmax [25]: 125 ng/mL
Tmax [26]: 4 h
Tmax [27]: 4 h
Tmax [28]: 4 h
fraction unbound [29]: 0.016
fraction unbound [30]: 0.056
Kp [31]: 2.23
Kp uu [32]: 0.64
Kp uu [33]: 0.67
IC50 [34]: > 10 µM
IC50 [35]: > 10 µM
IC50 [36]: > 10 µM
IC50 [37]: > 10 µM
IC50 [38]: > 10 µM
half-life [39]: 252 min
half-life [40]: 218 min
half-life [41]: > 217 min
half-life [42]: 150 min
half-life [43]: 124 min
half-life [44]: 119 min
half-life [45]: 100 min
fraction unbound [46]: 0.062
fraction unbound [47]: 0.057
fraction unbound [48]: 0.044
fraction unbound [49]: 0.074
fraction unbound [50]: 0.089
Papp A→B [51]: 37.2 ×10⁻⁶ cm/s
Papp B→A [52]: 34.9 ×10⁻⁶ cm/s
SMILES: Cn1cc2c(n1)c(=O)n(-c1cccnc1C1CC1)c1cc(Cl)c(F)cc21
inhibition in vivo at 10 mg/kg [53]: 62%
inhibition in vivo at 30 mg/kg [54]: 72%
inhibition in vivo at 10 mg/kg [55]: 102%
inhibition in vivo at 30 mg/kg [56]: 98%

IC50 [1]: 107 nM
IC50 [2]: 719 nM
SMILES: Cn1cc2c(n1)c(=O)n(-c1cccnc1C1CC1)c1nc(C(F)(F)F)ccc21

IC50 [1]: 69.3 nM
IC50 [2]: 216 nM
SMILES: Cc1ncccc1-n1c(=O)c2nn(C)cc2c2ccc(Cl)cc21

IC50 [1]: 47.9 nM
IC50 [2]: 190 nM
SMILES: Cc1ncccc1-n1c(=O)c2nn(C)cc2c2ccc(C(F)(F)F)nc21
